According to ChEMBL document CHEMBL2417511, “Probes for narcotic receptor mediated phenomena. 48. C7- and C8-substituted 5-phenylmorphan opioids from diastereoselective alkylation” (Eur J Med Chem, 2013):
pKi: −log10 of the molar value.

Experiments:
Assay type in all cases: cell-based
[1] = biological target: Kappa-type opioid receptor (Homo sapiens, UniProt P41145); assay: Displacement of [3H]U69,593 from human kappa opioid receptor expressed in CHO cells after 2 hrs by liquid scintillation counting
[2] = biological target: Delta-type opioid receptor (Homo sapiens, UniProt P41143); assay: Displacement of [3H]DADLE from human delta opioid receptor expressed in CHO cells after 2 hrs by liquid scintillation counting
Mu-type opioid receptor = Mu-type opioid receptor (Homo sapiens, UniProt P35372); assay: Displacement of [3H]DAMGO from human mu opioid receptor expressed in CHO cells after 2 hrs by liquid scintillation counting
Chain of Mu-type opioid receptor (P35372 whole entry): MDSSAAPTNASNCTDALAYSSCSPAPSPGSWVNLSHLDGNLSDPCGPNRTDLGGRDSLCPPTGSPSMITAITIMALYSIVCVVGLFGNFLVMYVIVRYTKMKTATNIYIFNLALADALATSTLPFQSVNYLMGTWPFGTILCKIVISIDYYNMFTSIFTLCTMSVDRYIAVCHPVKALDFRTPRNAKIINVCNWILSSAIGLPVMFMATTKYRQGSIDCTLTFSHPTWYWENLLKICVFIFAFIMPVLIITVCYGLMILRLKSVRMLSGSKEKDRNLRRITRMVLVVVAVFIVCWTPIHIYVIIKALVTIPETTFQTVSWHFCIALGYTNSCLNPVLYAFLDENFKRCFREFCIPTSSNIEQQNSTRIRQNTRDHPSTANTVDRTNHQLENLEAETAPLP

Chain of Kappa-type opioid receptor (P41145 whole entry): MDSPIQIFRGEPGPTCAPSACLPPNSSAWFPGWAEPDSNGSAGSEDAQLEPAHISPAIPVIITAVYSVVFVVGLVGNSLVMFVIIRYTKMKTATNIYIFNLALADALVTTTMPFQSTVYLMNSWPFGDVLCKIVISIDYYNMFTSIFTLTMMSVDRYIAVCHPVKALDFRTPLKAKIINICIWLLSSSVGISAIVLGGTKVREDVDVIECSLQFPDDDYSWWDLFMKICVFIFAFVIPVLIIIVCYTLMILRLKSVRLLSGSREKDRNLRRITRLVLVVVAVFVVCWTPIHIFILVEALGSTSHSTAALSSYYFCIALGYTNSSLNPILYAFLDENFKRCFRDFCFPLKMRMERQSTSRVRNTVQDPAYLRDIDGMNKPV
Chain of Delta-type opioid receptor (P41143 whole entry): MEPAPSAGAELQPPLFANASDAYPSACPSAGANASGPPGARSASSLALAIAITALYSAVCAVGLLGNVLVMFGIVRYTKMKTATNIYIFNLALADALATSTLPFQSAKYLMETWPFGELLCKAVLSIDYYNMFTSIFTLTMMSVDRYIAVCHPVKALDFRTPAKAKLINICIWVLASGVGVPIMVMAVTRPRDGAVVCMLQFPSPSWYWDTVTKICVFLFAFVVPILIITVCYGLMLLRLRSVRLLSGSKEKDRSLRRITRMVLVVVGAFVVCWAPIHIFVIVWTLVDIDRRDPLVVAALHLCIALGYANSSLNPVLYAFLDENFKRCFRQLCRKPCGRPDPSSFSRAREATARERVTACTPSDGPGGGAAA

For `CN1CC[C@]2(c3cccc(O)c3)C[C@H](O)C[C@@H]1C2`, the pKi [1] was 5.91, the pKi [2] was 5.71 and the pKi (Mu-type opioid receptor) was 7.66.
